Measured values taken from ChEMBL document CHEMBL3407458, “Design and synthesis of pyrazole-oxindole conjugates targeting tubulin polymerization as new anticancer agents” (Eur J Med Chem, 2015).
Activity calls are given as the source filed them. No cut-off for these calls is given here.

What was measured:
[1] = biological target: Tubulin (Bos taurus) (UniProt Q6B856+Q862L2+Q862F3); assay: Inhibition of bovine brain tubulin polymerization by fluorescence based tubulin polymerization assay
[2] = system: DU-145; assay: Cytotoxicity against human DU145 cells assessed as cell viability after 48 hrs by MTT assay; assay type: functional, cell-based; details: DU-145, 48 h
[3] = system: MCF7; assay: Cytotoxicity against human MCF7 cells assessed as cell viability after 48 hrs by MTT assay; assay type: functional, cell-based; details: MCF7, 48 h
[4] = system: HeLa; assay: Antimitotic activity against human HeLa cells assessed as cells accumulation at G2/M phase at 5 uM after 24 hrs by Propidium iodide staining based FACS/flow cytometry (reference value: 17.68%); assay type: functional
[5] = system: HeLa; assay: Antimicrotubule activity in human HeLa cells assessed as metaphase arrest at 5 uM after 24 hrs by immunohistochemistry; assay type: functional, cell-based
[6] = system: HeLa; assay: Cytotoxicity against human HeLa cells assessed as cell viability after 48 hrs by MTT assay; assay type: functional, cell-based
[7] = system: HeLa; assay: Antimitotic activity against human HeLa cells assessed as cells accumulation at G2/M phase at 10 uM after 24 hrs by Propidium iodide staining based FACS/flow cytometry (reference value: 17.68%); assay type: functional
[8] = system: A549; assay: Cytotoxicity against human A549 cells assessed as cell viability after 48 hrs by MTT assay; assay type: functional, cell-based; details: A549, 48 h
[9] = species on record: Danio rerio; assay: Delay in development of wild type zebrafish embryo at 25 uM observed 28 hpf by stereomicroscopy; assay type: functional, organism-based
[10] = system: HeLa; assay: Antimicrotubule activity in human HeLa cells assessed as multipolar spindle fiber at 5 uM after 24 hrs; assay type: functional, cell-based

Q: Which results are given for `COc1ccc(-c2cc(/C=C3\C(=O)Nc4ccc(OC)cc43)[nH]n2)cc1`?
A: INH [1]: 9.2 µM; IC50 [2]: 9 µM; IC50 [3]: 6 µM; Activity [4]: 60.19%; Activity [5]: Active; IC50 [6]: 7.1 µM; Activity [7]: 60.38%; IC50 [8]: 8 µM

Q: For `COc1ccc(-c2cc(/C=C3\C(=O)Nc4ccc(F)cc43)[nH]n2)cc1`, which INH [1] is on record?
A: 25 µM

Q: What about the IC50 [2] of the same compound?
A: 25 µM

Q: What about the IC50 [3] of the same compound?
A: 36 µM

Q: And the IC50 [6]?
A: 22 µM

Q: What about the IC50 [8] of the same compound?
A: 29 µM

Q: With `COC(=O)Nc1nc2cc(C(=O)c3cccs3)ccc2[nH]1` [NOCODAZOLE] as the compound, how does the INH [1] read?
A: 2.2 µM

Q: What about the IC50 [2] of the same compound?
A: 3.2 µM

Q: And the IC50 [3]?
A: 1.7 µM

Q: And the IC50 [6]?
A: 1.1 µM

Q: And the Activity [9]?
A: Active

Q: What about the IC50 [8] of the same compound?
A: 0.89 µM

Q: For `COc1ccc(-c2cc(/C=C3\C(=O)Nc4ccc([N+](=O)[O-])cc43)[nH]n2)cc1`, which INH [1] is on record?
A: 21 µM

Q: What about the IC50 [2] of the same compound?
A: 26 µM

Q: What about the IC50 [3] of the same compound?
A: 24 µM

Q: What about the IC50 [6] of the same compound?
A: 33 µM

Q: What about the IC50 [8] of the same compound?
A: 22 µM

Q: Which INH [1] does the source give for `O=C1Nc2ccc(F)cc2/C1=C/c1cc(-c2ccc3c(c2)OCO3)n[nH]1` here?
A: 24 µM

Q: What about the IC50 [2] of the same compound?
A: 21 µM

Q: And the IC50 [3]?
A: 36 µM

Q: What about the IC50 [6] of the same compound?
A: 32 µM

Q: And the IC50 [8]?
A: 26 µM

Q: `O=C1Nc2ccc([N+](=O)[O-])cc2/C1=C/c1cc(-c2ccc3c(c2)OCO3)n[nH]1` was tested. Which INH [1] did it give?
A: 14.7 µM

Q: And the IC50 [2]?
A: 36 µM

Q: And the IC50 [3]?
A: 17 µM

Q: What about the IC50 [6] of the same compound?
A: 24 µM

Q: And the IC50 [8]?
A: 37 µM

Q: With `O=C1Nc2ccc(Cl)cc2/C1=C/c1cc(-c2ccc3c(c2)OCO3)n[nH]1` as the compound, how does the INH [1] read?
A: 35.3 µM

Q: And the IC50 [2]?
A: 24 µM

Q: What about the IC50 [3] of the same compound?
A: 44 µM

Q: What about the IC50 [6] of the same compound?
A: 12 µM

Q: And the IC50 [8]?
A: 29 µM

Q: Which INH [1] does the source give for `COc1ccc2c(c1)/C(=C/c1cc(-c3ccc(OC)c(OC)c3)n[nH]1)C(=O)N2` here?
A: 22.1 µM

Q: And the IC50 [2]?
A: 34 µM

Q: And the IC50 [3]?
A: 32 µM

Q: And the IC50 [6]?
A: 13 µM

Q: And the IC50 [8]?
A: 15 µM

Q: Which INH [1] does the source give for `O=C1Nc2cc(Cl)ccc2/C1=C/c1cc(-c2ccc3c(c2)OCO3)n[nH]1` here?
A: 14.5 µM

Q: What about the IC50 [2] of the same compound?
A: 24 µM

Q: What about the IC50 [3] of the same compound?
A: 18 µM

Q: What about the IC50 [6] of the same compound?
A: 7.3 µM

Q: What about the IC50 [8] of the same compound?
A: 27 µM

Q: With `COc1cc(-c2cc(/C=C3\C(=O)Nc4cc(Cl)ccc43)[nH]n2)cc(OC)c1OC` as the compound, how does the INH [1] read?
A: 22.4 µM

Q: And the IC50 [2]?
A: 27 µM

Q: And the IC50 [3]?
A: 22 µM

Q: What about the IC50 [6] of the same compound?
A: 11 µM

Q: What about the IC50 [8] of the same compound?
A: 33 µM

Q: Which INH [1] does the source give for `COc1cc(-c2cc(/C=C3\C(=O)Nc4ccc(Cl)cc43)[nH]n2)cc(OC)c1OC` here?
A: 25.3 µM

Q: What about the IC50 [2] of the same compound?
A: 21 µM

Q: What about the IC50 [3] of the same compound?
A: 44 µM

Q: And the IC50 [6]?
A: 12 µM

Q: What about the IC50 [8] of the same compound?
A: 27 µM

Q: `COc1cc(-c2cc(/C=C3\C(=O)Nc4ccccc43)[nH]n2)cc(OC)c1OC` was tested. Which INH [1] did it give?
A: 18 µM

Q: And the IC50 [2]?
A: 35 µM

Q: What about the IC50 [3] of the same compound?
A: 27 µM

Q: And the IC50 [6]?
A: 21 µM

Q: What about the IC50 [8] of the same compound?
A: 21 µM

Q: What does the source list for `COc1ccc(-c2cc(/C=C3\C(=O)Nc4cc(Cl)ccc43)[nH]n2)cc1`?
A: INH [1]: 5.9 µM; IC50 [2]: 3 µM; IC50 [3]: 3.6 µM; Activity [4]: 71.2%; Activity [10]: Active; IC50 [6]: 2.4 µM; Activity [7]: 77.6%; Activity [9]: Active; IC50 [8]: 3 µM

Q: Which INH [1] does the source give for `COc1ccc(-c2cc(/C=C3\C(=O)Nc4ccccc43)[nH]n2)cc1OC` here?
A: 23 µM

Q: And the IC50 [2]?
A: 31 µM

Q: What about the IC50 [3] of the same compound?
A: 36 µM

Q: What about the IC50 [6] of the same compound?
A: 21 µM

Q: And the IC50 [8]?
A: 29 µM

Q: Which INH [1] does the source give for `COc1ccc(-c2cc(/C=C3\C(=O)Nc4cc(Cl)ccc43)[nH]n2)cc1OC` here?
A: 18.9 µM

Q: And the IC50 [2]?
A: 13.9 µM

Q: What about the IC50 [3] of the same compound?
A: 27 µM

Q: What about the IC50 [6] of the same compound?
A: 11 µM

Q: And the IC50 [8]?
A: 18 µM

Q: How did the INH [1] turn out when `COc1ccc(-c2cc(/C=C3\C(=O)Nc4ccc([N+](=O)[O-])cc43)[nH]n2)cc1OC` was run?
A: 18 µM

Q: What about the IC50 [2] of the same compound?
A: 28 µM

Q: And the IC50 [3]?
A: 42 µM

Q: What about the IC50 [6] of the same compound?
A: 36 µM

Q: What about the IC50 [8] of the same compound?
A: 42 µM

Q: `COc1ccc2c(c1)/C(=C/c1cc(-c3ccc4c(c3)OCO4)n[nH]1)C(=O)N2` was tested. Which INH [1] did it give?
A: 12 µM

Q: What about the IC50 [2] of the same compound?
A: 34 µM

Q: What about the IC50 [3] of the same compound?
A: 9.8 µM

Q: What about the IC50 [6] of the same compound?
A: 13.5 µM

Q: What about the IC50 [8] of the same compound?
A: 24 µM

Q: How did the INH [1] turn out when `COc1ccc(-c2cc(/C=C3\C(=O)Nc4ccccc43)[nH]n2)cc1` was run?
A: 38.9 µM

Q: What about the IC50 [2] of the same compound?
A: 21 µM

Q: What about the IC50 [3] of the same compound?
A: 15 µM

Q: And the IC50 [6]?
A: 18 µM

Q: And the Activity [9]?
A: Active

Q: What about the IC50 [8] of the same compound?
A: 14 µM

Q: `COc1ccc(-c2cc(/C=C3\C(=O)Nc4ccc(Cl)cc43)[nH]n2)cc1` was tested. Which INH [1] did it give?
A: 8.1 µM

Q: And the IC50 [2]?
A: 4 µM

Q: And the IC50 [3]?
A: 9.3 µM

Q: What about the Activity [4] of the same compound?
A: 69.01%

Q: And the Activity [10]?
A: Active

Q: What about the IC50 [6] of the same compound?
A: 5 µM

Q: And the Activity [7]?
A: 72.75%

Q: What about the Activity [9] of the same compound?
A: Active

Q: What about the IC50 [8] of the same compound?
A: 6 µM

Q: Which results are given for `COc1cc(-c2cc(/C=C3\C(=O)Nc4ccc([N+](=O)[O-])cc43)[nH]n2)cc(OC)c1OC`?
A: INH [1]: 15.3 µM; IC50 [2]: 20 µM; IC50 [3]: 16 µM; IC50 [6]: 30 µM; IC50 [8]: 22 µM

Q: For `COc1ccc(-c2cc(/C=C3\C(=O)Nc4ccc(Cl)cc43)[nH]n2)cc1OC`, which INH [1] is on record?
A: 33.8 µM

Q: What about the IC50 [2] of the same compound?
A: 21 µM

Q: And the IC50 [3]?
A: 16 µM

Q: What about the IC50 [6] of the same compound?
A: 10 µM

Q: What about the IC50 [8] of the same compound?
A: 24 µM

Q: For `COc1ccc2c(c1)/C(=C/c1cc(-c3cc(OC)c(OC)c(OC)c3)n[nH]1)C(=O)N2`, which INH [1] is on record?
A: 16 µM

Q: And the IC50 [2]?
A: 9.1 µM

Q: And the IC50 [3]?
A: 8.8 µM

Q: What about the IC50 [6] of the same compound?
A: 16 µM

Q: What about the IC50 [8] of the same compound?
A: 33 µM
